Experimental data taken from ChEMBL document CHEMBL4414671, “Antinociceptive Grayanane Diterpenoids from the Leaves of Pieris japonica” (2019).

What follows are compounds tested on Mus musculus (assay: Antinociceptive activity in mouse as reduction in acetic acid-induced writhes at 0.04 mg/kg,ip relative to control).
Format: functional
Compound CC1(C)[C@@H](O)[C@H](O)[C@H]2[C@](C)(O)[C@@H]3CC[C@@H]4[C@@H](O)[C@@]3(C[C@@H](O)[C@@]21O)C[C@@]4(C)O has an inhibition in vivo at 0.04 mg/kg of 88.7%.
With CO[C@H]1[C@H](O)C(C)(C)[C@@]2(O)[C@H](O)C[C@]34C[C@@](C)(O)[C@H](CC[C@H]3[C@@](C)(O)[C@H]12)[C@H]4O the inhibition in vivo at 0.04 mg/kg was 59.1%.
C=C1[C@@H]2CC[C@@H]3C[C@]2(C=C3CO)C[C@@H](O)[C@@]2(O)[C@H]1C[C@H](O)C2(C)C gave an inhibition in vivo at 0.04 mg/kg of 56.3%.
With CC1=C[C@@]23C[C@@H](O)[C@@]4(O)[C@@H]([C@@H](O)[C@H](O)C4(C)C)[C@](C)(O)[C@@H]2CC[C@@H]1[C@H]3O the inhibition in vivo at 0.04 mg/kg was 61.9%.

Each compound was assayed on Mus musculus (assay: Antinociceptive activity in mouse as reduction in acetic acid-induced writhes at 0.2 to 1 mg/kg, ip relative to control).
Format: functional
For CC1=C2CC[C@@H]3[C@@H](O)[C@@]2(C[C@@H](O)[C@@]2(O)[C@H]1[C@@H](O)[C@H](O)C2(C)C)C[C@@]3(C)O, the “inhibition (INH)” value was over 50%.

Each compound was assayed on Mus musculus (assay: Antinociceptive activity in mouse as reduction in acetic acid-induced writhes at 1 mg/kg, ip relative to control).
Format: functional
In the case of C=C1[C@@H]2CC[C@@H]3C[C@@]2(C[C@@H](O)[C@@]2(O)[C@H]1CC(=O)C2(C)C)C[C@@]3(C)O, the inhibition in vivo at 1 mg/kg is reported as 76.3%.

What follows are compounds tested on Mus musculus (assay: Antinociceptive activity in mouse as reduction in acetic acid-induced writhes at 0.2 mg/kg, ip relative to control).
Format: functional
For C=C1[C@@H]2CC[C@@H]3C[C@@]2(C[C@@H](O)[C@@]2(O)[C@H]1CC(=O)C2(C)C)C[C@@]3(C)O, the inhibition in vivo at 0.2 mg/kg was 59.1%.

These compounds were tested on Mus musculus (assay: Antinociceptive activity in mouse as reduction in acetic acid-induced writhes at 5 mg/kg, ip relative to control).
Format: functional
Work on C=C1[C@@H]2CC[C@@H]3C[C@@]2(C[C@@H](O)[C@@]2(O)[C@@H]1[C@H](O)[C@H](O)C2(C)C)C[C@@]3(C)O yielded an inhibition in vivo at 5 mg/kg of over 50%.
C=C1[C@@H]2[C@@H](OC)[C@H](O)C(C)(C)[C@@]2(O)[C@H](O)C[C@]23C[C@@](C)(O)[C@H](CC[C@@H]12)[C@H]3O was tested, and the inhibition in vivo at 5 mg/kg was over 50%.
C=C1[C@@H]2C[C@@H](O)[C@@H]3C[C@@]2(C[C@@H](O)[C@@]2(O)[C@H]1C[C@H](O)C2(C)C)C[C@@]3(C)O was tested, and the inhibition in vivo at 5 mg/kg was over 50%.
Compound C=C1[C@@H]2CC[C@@H]3C[C@@]2(C[C@@H](O)[C@@]2(O)[C@H]1C[C@H](O)C2(C)C)C[C@@]3(C)OC has an inhibition in vivo at 5 mg/kg of over 50%.
For C=C1[C@@H]2[C@@H](O)[C@H](O)C(C)(C)[C@@]2(O)[C@H](O)C[C@]23C=C(C)[C@H](CC[C@@H]12)[C@H]3O, the inhibition in vivo at 5 mg/kg was over 50%.
With CC1=C2CC[C@@H]3C[C@@]2(C[C@@H](O)[C@@]2(O)[C@H]1C[C@H](O)C2(C)C)C[C@@]3(C)O the inhibition in vivo at 5 mg/kg was over 50%.
C=C1[C@@H]2[C@@H](OC)[C@H](O)C(C)(C)[C@@]2(O)[C@H](O)C[C@]23C[C@@](C)(O)[C@H](CC[C@@H]12)[C@H]3OC(=O)C(C)O (stereo partly specified) showed an inhibition in vivo at 5 mg/kg of over 50%.
With CC1(C)[C@@H](O)C[C@@H]2[C@@](C)(O)[C@@H]3CC[C@]4(O)C[C@@]3(C[C@@H](O)[C@@]21O)C[C@@]4(C)O the inhibition in vivo at 5 mg/kg was over 50%.
C=C1[C@@H]2CC[C@@H]3C[C@@]2(C[C@@H](O)[C@@]2(O)[C@H]1CC(=O)C2(C)C)C[C@@]3(C)O gave an inhibition in vivo at 5 mg/kg of 87.3%.
C=C1[C@@H]2[C@@H](O)[C@H](O)C(C)(C)[C@@]2(O)[C@H](O)C[C@]23C[C@@](C)(O)[C@H](CC[C@@H]12)[C@H]3OC(=O)CC showed an inhibition in vivo at 5 mg/kg of over 50%.
In the case of C=C1C2=C([C@H](O)C[C@@]34C[C@@H](CC[C@@H]13)[C@](C)(O)C4)C(C)(C)[C@@H](O)[C@H]2O, the inhibition in vivo at 5 mg/kg is reported as over 50%.
C=C1[C@@H]2CC[C@@H]3C[C@@]2(C[C@@H](O)[C@@]2(O)[C@H]1C[C@H](O)C2(C)C)C[C@@]3(C)O was tested, and the inhibition in vivo at 5 mg/kg was over 50%.
For C=C1[C@@H]2CC[C@@H]3[C@@H](O)[C@@]2(C[C@@H](O)[C@@]2(O)[C@H]1C[C@H](O)C2(C)C)C[C@@]3(C)O, the inhibition in vivo at 5 mg/kg was over 50%.
C=C1[C@H]2C[C@H](O)C(C)(C)[C@]2(O)CC[C@@]23C[C@@H](CC[C@@H]12)[C@@](O)(CO)C3 was tested, and the inhibition in vivo at 5 mg/kg was over 50%.
With C=C1[C@@H]2CC[C@@H]3[C@@H](OC(=O)CC)[C@@]2(C[C@@H](O)[C@@]2(O)[C@H]1C[C@H](O)C2(C)C)C[C@@]3(C)O the inhibition in vivo at 5 mg/kg was over 50%.
Work on C=C1[C@@H]2CC[C@H]3C(C)=C[C@]2(C[C@@H](O)[C@@]2(O)[C@H]1C[C@H](O)C2(C)C)[C@@H]3O yielded an inhibition in vivo at 5 mg/kg of over 50%.
C=C1[C@@H]2[C@H](O)[C@H](O)C(C)(C)[C@@]2(O)[C@H](O)C[C@]23C[C@@](C)(O)[C@H](CC[C@@H]12)[C@H]3O gave an inhibition in vivo at 5 mg/kg of over 50%.
Compound CC1=C2C[C@H](O)C(C)(C)[C@]23O[C@]12CC[C@@H]1C[C@@]2(C[C@H]3O)C[C@@]1(C)O has an inhibition in vivo at 5 mg/kg of over 50%.
C=C1[C@@H]2[C@@H](OC)[C@H](O)C(C)(C)[C@@]2(O)[C@H](O)C[C@]23C=C(C)[C@H](CC[C@@H]12)[C@H]3O gave an inhibition in vivo at 5 mg/kg of over 50%.
